The results in this text go back to ChEMBL document CHEMBL4602703, “Lead Optimization of a Pyrrole-Based Dihydroorotate Dehydrogenase Inhibitor Series for the Treatment of Malaria” (J Med Chem, 2020).

The term EC50 denotes the concentration giving half of the maximal effect. A high value points to a need for much substance. A word on the IC50: it is the concentration at which inhibition is half-maximal. Higher therefore signals weaker potency. For orientation: microsomal CLint means a measure of how fast metabolising enzymes remove a compound, apart from limits set by blood flow. By logD is commonly meant the decadic logarithm of the distribution of all forms, ionised or not, between an organic phase and buffer at a given pH. Low values mean lower lipophilicity, high ones higher lipophilicity.

Where only a bound is given, the exact number is not on record here.

Data set [1] relates to Plasmodium falciparum. The data set can be described thus: microbe, parasite or virus in culture. The settings on record: 3D7, 72 h.
For data set [2], the target named is Dihydroorotate dehydrogenase (quinone), mitochondrial (Homo sapiens, UniProt Q02127).
Data set [3] is described as follows: Intrinsic clearance in mouse liver microsomes assessed as per mg protein. The class given is ADME, Microsome. Conditions: microsomes. Background: Liver microsomes are vesicles of endoplasmic reticulum, rich in cytochrome P450 enzymes.
The nature of data set [4]: physchem. Conditions: octanol/water, pH 7.4.
Data set [5] addresses Albumin (Homo sapiens, UniProt P02768). The data set can be described thus: Binding affinity to albumin (unknown origin) by chromatographic method. The class given is ADME. Conditions: albumin, read-out: PB (converted).
Data set [6] can be described thus: Inhibition of N-terminal His6-tagged Plasmodium falciparum DHODH expressed in Escherichia coli BL21(DE3) cells using L-DHO as substrate by DCIP dye based assay.
The nature of data set [7]: Intrinsic clearance in human liver microsomes assessed as per mg protein. The class given is ADME, Microsome.

Chain of Dihydroorotate dehydrogenase (quinone), mitochondrial (Q02127 whole entry): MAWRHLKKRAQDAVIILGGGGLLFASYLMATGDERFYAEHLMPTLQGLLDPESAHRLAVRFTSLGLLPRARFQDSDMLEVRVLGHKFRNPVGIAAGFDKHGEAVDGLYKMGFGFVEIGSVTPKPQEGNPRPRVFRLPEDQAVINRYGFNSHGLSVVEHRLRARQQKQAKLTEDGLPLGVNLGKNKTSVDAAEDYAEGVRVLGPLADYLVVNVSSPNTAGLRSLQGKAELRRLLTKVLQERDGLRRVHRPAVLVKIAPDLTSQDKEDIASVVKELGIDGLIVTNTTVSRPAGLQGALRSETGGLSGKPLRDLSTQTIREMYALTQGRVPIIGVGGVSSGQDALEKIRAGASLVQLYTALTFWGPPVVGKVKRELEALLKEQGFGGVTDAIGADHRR
Chain of Albumin (P02768 whole entry): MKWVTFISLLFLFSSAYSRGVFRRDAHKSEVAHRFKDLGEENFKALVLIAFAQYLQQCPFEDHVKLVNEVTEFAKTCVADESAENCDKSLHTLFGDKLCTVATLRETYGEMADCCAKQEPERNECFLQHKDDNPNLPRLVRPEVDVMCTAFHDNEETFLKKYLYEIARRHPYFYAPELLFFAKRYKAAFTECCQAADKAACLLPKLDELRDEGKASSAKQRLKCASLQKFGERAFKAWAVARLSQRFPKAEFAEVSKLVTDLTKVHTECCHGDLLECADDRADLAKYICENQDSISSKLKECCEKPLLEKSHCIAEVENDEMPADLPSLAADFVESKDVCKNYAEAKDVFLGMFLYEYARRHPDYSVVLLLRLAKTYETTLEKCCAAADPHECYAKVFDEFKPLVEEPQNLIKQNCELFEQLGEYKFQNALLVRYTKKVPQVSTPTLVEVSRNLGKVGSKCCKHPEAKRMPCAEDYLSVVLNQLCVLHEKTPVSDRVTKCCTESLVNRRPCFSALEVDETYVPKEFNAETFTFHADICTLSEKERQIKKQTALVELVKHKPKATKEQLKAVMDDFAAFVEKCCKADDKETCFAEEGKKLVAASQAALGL

`Cc1c(Cc2ccc(C(F)(F)F)nc2)c[nH]c1C(=O)N1CCC1` had a half-maximal effective concentration (EC50) in data set [1] of 0.082 µM. Besides, the 50% inhibitory concentration (IC50) in data set [2] was greater than 100 µM; in data set [6] it was 0.17 µM. Besides, the microsomal CLint in data set [3] was 192 µL/min/mg; in data set [7], less than 7 µL/min/mg. In data set [4], this molecule returned a logD of 2.7. Also, in data set [5], the fraction unbound was 0.341.
For the molecule `CCNC(=O)c1[nH]c(C)c(Cc2ccc(C(F)(F)F)nc2)c1C`, in data set [1], a half-maximal response (EC50) required 0.033 µM. For the same molecule, the results for the IC50 in data set [2] and in data set [6] were greater than 100 µM and 0.054 µM, respectively. For the same molecule, the microsomal CLint in data set [3] worked out at 54 µL/min/mg; in data set [7], 70 µL/min/mg. The same molecule showed a logD in data set [4] of 2.8. For the same molecule, the fraction unbound in data set [5] was 0.229.
As for `Cc1c(Cc2ccc(C(F)(F)F)cc2Cl)c[nH]c1C(=O)NC1CC1`, in data set [1], a half-maximal response (EC50) required 0.02 µM. Moreover, the IC50 in data set [2] is greater than 100 µM; in data set [6], 0.017 µM. Besides, the intrinsic metabolic clearance (microsomal CLint) amounted to 264 µL/min/mg in data set [3] and 14 µL/min/mg in data set [7]. Moreover, the logD in data set [4] came to 4.1. Besides, the fraction unbound in data set [5] is 0.019.
For `Cc1c(Cc2ccc(C(F)(F)F)nc2)c[nH]c1C(=O)NCC(F)(F)F`, in data set [1], the EC50 fell in the range of 0.044 to 0.059 µM. Also, the IC50 in data set [2] is greater than 100 µM; in data set [6] it was 0.21 µM. Further, the microsomal CLint in data set [3] is 57 µL/min/mg; in data set [7] it was 15 µL/min/mg. In data set [4], this molecule returned a logD of 3.3. The fraction unbound in data set [5] was 0.181.
`Cc1c(Cc2ccc(C(F)(F)F)nc2)c[nH]c1C(=O)NC1CCC1` had an EC50 in data set [1] of 0.027 µM. Further, the IC50 in data set [2] was greater than 100 µM; in data set [6], 0.044 µM. Further, the figures for the microsomal CLint in data set [3] and in data set [7] were 204 µL/min/mg and 29 µL/min/mg, respectively. The same molecule had a logD in data set [4] of 3.2. For the same molecule, the fraction unbound in data set [5] is 0.165.
For `Cc1c(C(O)c2ccc(C(F)(F)F)nc2)c[nH]c1C(=O)NC1CC1` (racemic), it took 0.044 µM to reach a half-maximal effect in data set [1] (EC50). Moreover, the results for the 50% inhibitory concentration (IC50) in data set [2] and in data set [6] were greater than 100 µM and 0.074 µM, respectively. In addition, the microsomal CLint in data set [3] worked out at 40 µL/min/mg; in data set [7], 20 µL/min/mg. Further, the log distribution coefficient (logD) in data set [4] turned out to be 3.2. In data set [5], the fraction unbound was 0.105.
As to `Cc1[nH]c(C(=O)NC2CC2)c(C)c1Oc1ccc(C(F)(F)F)nc1`, in data set [1], the half-maximal effective concentration (EC50) came out at 0.29 µM. The figures for the half-maximal inhibitory concentration (IC50) in data set [2] and in data set [6] were greater than 100 µM and 0.8 µM, respectively. The intrinsic clearance (microsomal CLint) in data set [3] turned out to be 22 µL/min/mg; in data set [7] it was 8 µL/min/mg. Further, the logD in data set [4] came out at 1.7. Also, in data set [5], the fraction unbound was 0.573.
In data set [1], `O=C(NC1CC1)c1cc(Cc2ccc(C(F)(F)F)nc2)c[nH]1` came in with an EC50 of 0.5 to 1.7 µM. Also, the IC50 was greater than 100 µM in data set [2] and 2.5 µM in data set [6]. The results for the intrinsic clearance (microsomal CLint) in data set [3] and in data set [7] were 96 µL/min/mg and 31 µL/min/mg, respectively. This molecule showed a pH-dependent lipophilicity (logD) in data set [4] of 2.6. For the same molecule, the fraction unbound in data set [5] is 0.333.
As for `Cc1c(Cc2ccc(C(F)(F)F)cc2F)c[nH]c1C(=O)NC1CC1`, the EC50 in data set [1] was 0.016 µM. The half-maximal inhibitory concentration (IC50) in data set [2] is greater than 100 µM; in data set [6], 0.044 µM. Further, the intrinsic metabolic clearance (microsomal CLint) in data set [3] is 184 µL/min/mg; in data set [7] it was 15 µL/min/mg. This molecule displayed a logD in data set [4] of 3.8. Further, the fraction unbound in data set [5] was 0.03.
For `CCCNC(=O)c1[nH]c(C)c(Cc2ccc(C(F)(F)F)nc2)c1C`, a half-maximal response in data set [1] (EC50) required 0.047 µM. Also, the IC50 in data set [2] was greater than 100 µM; in data set [6] it was 0.072 µM. The microsomal CLint in data set [3] turned out to be 64 µL/min/mg; in data set [7], 172 µL/min/mg. Further, the logD in data set [4] was 3.2. In data set [5], the fraction unbound was 0.155.
In data set [1], `Cc1c(Cc2ccc(C(F)(F)F)cc2)c[nH]c1C(=O)NC1CC1` gave an EC50 of 0.018 µM. In addition, the IC50 is greater than 100 µM in data set [2] and 0.048 µM in data set [6]. Further, the values for the intrinsic metabolic clearance (microsomal CLint) in data set [3] and in data set [7] were 173 µL/min/mg and 19 µL/min/mg, respectively. In addition, the logD in data set [4] stood at 3.7. Besides, the fraction unbound in data set [5] is 0.029.
